“And” between values parts separate entries of the source, which are not always exact repeats. Identical values can stand only once.
What was measured:
Format in all cases: cell-based
Bacillus subtilis W168 [1] = assay: Disk sensitivity test (modified Kirby-Bauer), B. subtilis;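 also: Compound-loaded filter disks on LB agar plates seeded with a bacterial lawn, plates held overnight at 37 °C, then the clear zone around each disk measured, compounds in DMSO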
Description: (§1) Filter disks were provided as sterile filter paper (about 6 mm in diameter) and spotted with 20 μL of a selected compound. Each compound was initially dissolved in dimethylsulfoxide (DMSO); any subsequent dilutions were also made in DMSO. Each filter was placed on an LB agar plate spread with 100 μL of a bacterial culture that had been grown overnight in suitable LB broth. Plates were incubated overnight at 37° C., after which, the extent of growth inhibition around each filter disk was measured. Bacterial strains included Staphylococcus aureus (ATCC 25923), Pseudomonas aeruginosa PAO1, Bacillus subtilis W168 and Escherichia coli HB101. […] The latter two strains are non-pathogenic Gram-positive and Gram-negative bacterial strains, respectively.

[2] = test system: Pseudomonas aeruginosa PAO1; assay: Minimum inhibitory concentration in LB broth, P. aeruginosa; conditions: for Relative to AgNO3: efficacy per mole from MIC values
Escherichia coli HB101 [3] = assay: Disk sensitivity test (modified Kirby-Bauer), E. coli;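 also: filter disk loaded with compound in DMSO laid on an LB agar bacterial lawn, kept overnight at 37 °C, then the inhibition zone around the disk is measured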
Description: as §1

[4] = test system: Staphylococcus aureus (ATCC 25923); assay: Disk sensitivity test (modified Kirby-Bauer), S. aureus;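 also: Compound-loaded filter disks on LB agar plates seeded with a confluent bacterial lawn, compound dissolved in DMSO, plates kept overnight at 37 °C, then inhibition zone around disk measured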
Description: as §1

[5] = test system: Staphylococcus aureus (ATCC 25923); assay: Minimum inhibitory concentration in LB broth, S. aureus; conditions: for Relative to AgNO3: efficacy per mole from MIC values
[6] = test system: Pseudomonas aeruginosa PAO1; assay: Disk sensitivity test (modified Kirby-Bauer), P. aeruginosa;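 also: Compound-loaded filter disks on LB agar lawns, DMSO as solvent, zone of inhibition around each disk read after overnight incubation at 37 °C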
Escherichia coli HB101 [7] = assay: Minimum inhibitory concentration in LB broth, E. coli; conditions: for Relative to AgNO3: efficacy per mole from MIC values;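 as to all read-outs here: broth dilution MIC, test compounds first taken up in DMSO, then serially diluted in LB medium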
Bacillus subtilis W168 [8] = assay: Minimum inhibitory concentration in LB broth, B. subtilis; conditions: for Relative to AgNO3: efficacy per mole from MIC values
[9] = test system: Gram positive and Gram negative bacteria; assay: Antimicrobial activity, summary of TABLES 16-18
Description: The new class of fluorinated triazapentadiene compounds with and without metal complexation as described herein were analyzed for antibacterial activity against several bacterial strains (both Gram positive and Gram negative). Methods for antimicrobial analysis included a modified Kirby-Bauer method and a determination of their minimum inhibitory concentrations. In brief, the modified Kirby-Bauer method relied on placement of a filter disk impregnated with a desired compound on a solid growth medium. Bacteria were grown to a confluent lawn and the extent of growth inhibition was measured (e.g., as an extent/percentage of a clear zone on the disk and/or solid medium).
For MIC assessment, compounds were initially dissolved in DMSO and serial dilutions of soluble compounds were made in LB broth.

[10] = 1.00 × 10^0 μg/ml (printed 5.9 × 10^−6 mM)
[11] = 1.00 × 10^1 μg/ml (5.9 × 10^−5 mM)
[12] = 1.00 × 10^2 μg/ml (5.9 × 10^−4 mM [sic])
[13] = 1.00 × 10^3 μg/ml (printed 5.9 × 10^−3 mM)
[14] = 1.00 × 10^4 μg/ml (printed 5.9 × 10^−2 mM)

O=[N+]([O-])[O-].[Ag+] [AgNO3, reference compound]
Diameter of the zone of growth inhibition (Bacillus subtilis W168 [1]; [10]): 9.0 mm | Diameter of the zone of growth inhibition (Bacillus subtilis W168 [1]; [11]): 9.5 mm | Diameter of the zone of growth inhibition (Bacillus subtilis W168 [1]; [12]): 13.0 mm | Diameter of the zone of growth inhibition (Bacillus subtilis W168 [1]; [13]): 13.0 mm | Diameter of the zone of growth inhibition (Bacillus subtilis W168 [1]; (printed 5.9 × 10^−2 mM)): 16.0 mm | MIC [2]: 3.12 μg/ml and 1.84 × 10^−2 mM | Relative to AgNO3 [2]: 1.00 | Diameter of the zone of growth inhibition (Escherichia coli HB101 [3]; [10]): 7.0 mm | Diameter of the zone of growth inhibition (Escherichia coli HB101 [3]; [11]): 8.5 mm | Diameter of the zone of growth inhibition (Escherichia coli HB101 [3]; [12]): 13.0 mm | Diameter of the zone of growth inhibition (Escherichia coli HB101 [3]; [13]): 14.0 mm | Diameter of the zone of growth inhibition (Escherichia coli HB101 [3]; [14]): 15.0 mm | Diameter of the zone of growth inhibition [4, 10]: 6.0 (NZ) mm | Diameter of the zone of growth inhibition [4, 11]: 7.0 mm | Diameter of the zone of growth inhibition [4, 12]: 8.5 mm | Diameter of the zone of growth inhibition [4, 13]: 9.0 mm | Diameter of the zone of growth inhibition [4, 14]: 10.5 mm | MIC [5]: 12.50 μg/ml and 7.36 × 10^−2 mM | Relative to AgNO3 [5]: 1.00 | Diameter of the zone of growth inhibition [6, 10]: 6.0 (NZ) mm | Diameter of the zone of growth inhibition [6, 11]: 6.0 (NZ) mm | Diameter of the zone of growth inhibition [6, 12]: 9.5 mm | Diameter of the zone of growth inhibition [6, 13]: 12.5 mm | Diameter of the zone of growth inhibition [6, 14]: 16.0 mm | MIC (Escherichia coli HB101 [7]): 10.0 μg/ml and 5.89 × 10^−2 mM | Relative to AgNO3 (Escherichia coli HB101 [7]): 1.00 | MIC (Bacillus subtilis W168 [8]): 25.00 μg/ml and 1.47 × 10^−1 mM | Relative to AgNO3 (Bacillus subtilis W168 [8]): 1.00

FC(F)(F)C(F)(F)C(F)(F)C(=Nc1c(Cl)cccc1Cl)N=C([N]([Ag])c1c(Cl)cccc1Cl)C(F)(F)C(F)(F)C(F)(F)F [[N{(C3F7)C(2,6-Cl2C6H3)N}2]Ag]
Diameter of the zone of growth inhibition (Bacillus subtilis W168 [1]; 5.7 × 10^0 mM): 21.0 mm | Diameter of the zone of growth inhibition (Bacillus subtilis W168 [1]; 5.7 × 10^1 mM): 19.5 mm | Diameter of the zone of growth inhibition (Bacillus subtilis W168 [1]; 5.7 × 10^−1 mM): 18.0 mm | Diameter of the zone of growth inhibition (Bacillus subtilis W168 [1]; 5.7 × 10^−2 mM): 19.0 mm | Diameter of the zone of growth inhibition (Bacillus subtilis W168 [1]; 5.7 × 10^−3 mM): 12.0 mm | Diameter of the zone of growth inhibition (Bacillus subtilis W168 [1]; 5.7 × 10^−4 mM): 6.0 (NZ) mm | Diameter of the zone of growth inhibition (Bacillus subtilis W168 [1]; 5.7 × 10^−5 mM): 6.0 (NZ) mm | MIC [2]: 72.20 μg/ml and 8.98 × 10^−2 mM | sensitivity of the bacteria to the compound (in words) [2]: most sensitive | Relative to AgNO3 [2]: 2.05 × 10^−1 | Diameter of the zone of growth inhibition (Escherichia coli HB101 [3]; 5.7 × 10^0 mM): 16.0 mm | Diameter of the zone of growth inhibition (Escherichia coli HB101 [3]; 5.7 × 10^1 mM): 15.5 mm | Diameter of the zone of growth inhibition (Escherichia coli HB101 [3]; 5.7 × 10^−1 mM): 11.0 mm | Diameter of the zone of growth inhibition (Escherichia coli HB101 [3]; 5.7 × 10^−2 mM): 9.0 mm | Diameter of the zone of growth inhibition (Escherichia coli HB101 [3]; 5.7 × 10^−3 mM): 7.0 mm | antimicrobial activity (in words) [9]: Effective | Diameter of the zone of growth inhibition ([4]; 5.7 × 10^0 mM): 16.5 mm | Diameter of the zone of growth inhibition ([4]; 5.7 × 10^1 mM): 20.0 mm | Diameter of the zone of growth inhibition ([4]; 5.7 × 10^−1 mM): 15.0 mm | Diameter of the zone of growth inhibition ([4]; 5.7 × 10^−2 mM): 14.5 mm | Diameter of the zone of growth inhibition ([4]; 5.7 × 10^−3 mM): 11.0 mm | Diameter of the zone of growth inhibition ([4]; 5.7 × 10^−4 mM): 6.0 (NZ) mm | Diameter of the zone of growth inhibition ([4]; 5.7 × 10^−5 mM): 6.0 (NZ) mm | MIC [5]: 0.853 μg/ml and 1.12 × 10^−2 mM | Relative to AgNO3 [5]: 69.43 | Diameter of the zone of growth inhibition ([6]; 5.7 × 10^0 mM): 13.5 mm | Diameter of the zone of growth inhibition ([6]; 5.7 × 10^1 mM): 15.0 mm | Diameter of the zone of growth inhibition ([6]; 5.7 × 10^−1 mM): 10.0 mm | Diameter of the zone of growth inhibition ([6]; 5.7 × 10^−2 mM): 7.0 mm | Diameter of the zone of growth inhibition ([6]; 5.7 × 10^−3 mM): 6.0 (NZ) mm | MIC (Escherichia coli HB101 [7]): 72.20 μg/ml and 8.98 × 10^−2 mM | sensitivity of the bacteria to the compound (in words) (Escherichia coli HB101 [7]): most sensitive | Relative to AgNO3 (Escherichia coli HB101 [7]): 6.56 × 10^−1 | MIC (Bacillus subtilis W168 [8]): 4.27 × 10^−1 μg/ml and 5.31 × 10^−4 mM | Relative to AgNO3 (Bacillus subtilis W168 [8]): 276.84

— patent US7893288B2, “Poly-halogenated triazapentadiene compositions” (Board of Regents, The University of Texas System, priority 2007, dated 2011)
